Data taken from PubChem BioAssay (NCI).
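Test compounds were applied to cells in 96-well plates for 48 hours at 5 doses. Abbreviation: GI50, concentration required for 50% inhibition of growth. Definition used: TGI = concentration required for complete inhibition of growth.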 *1 amine or outer side, *2 acyl side, *3 side chain or, on linkers, in order; H or OH if unused. Where a SMILES comes first, the peptide text is derived from it. Bridges are numbered along the chain shown (N, C = ends). Roman numbers before positions name the chains, in order. [ ]: non-standard residue; d: D form. Actinocin(9to1) = Cc1c2oc3c(C)ccc(C(=O)[*:1])c3nc-2c(C(=O)[*:2])c(N)c1=O; NMeV = CN[CH](C(=O)O)C(C)C; Sar = CNCC(=O)O

Columns and labels:
Assay in all cases: NCI-60 cell line screen, 48 h
K-562 leukemia = test system: K-562 leukemia
MDA-N = test system: MDA-N
HCT-116 colon = test system: HCT-116 colon
MOLT-4 leukemia = test system: MOLT-4 leukemia
SF-295 CNS = test system: SF-295 CNS
T-47D breast = test system: T-47D breast
DU-145 prostate = test system: DU-145 prostate
A498 renal = test system: A498 renal
ACHN renal = test system: ACHN renal
UO-31 renal = test system: UO-31 renal
OVCAR-8 ovarian = test system: OVCAR-8 ovarian
MDA-MB-231 breast = test system: MDA-MB-231 breast
SR leukemia = test system: SR leukemia
NCI/ADR-RES ovarian = test system: NCI/ADR-RES ovarian
MCF7 breast = test system: MCF7 breast
SNB-75 CNS = test system: SNB-75 CNS
HCC-2998 colon = test system: HCC-2998 colon
PC-3 prostate = test system: PC-3 prostate
M14 melanoma = test system: M14 melanoma
OVCAR-4 ovarian = test system: OVCAR-4 ovarian
IGROV1 ovarian = test system: IGROV1 ovarian
HOP-92 NSCLC = test system: HOP-92 NSCLC
NCI-H522 lung = test system: NCI-H522 lung
U251 CNS = test system: U251 CNS
HCT-15 colon = test system: HCT-15 colon
HS 578T breast = test system: HS 578T breast
786-0 renal = test system: 786-0 renal
LOX IMVI melanoma = test system: LOX IMVI melanoma
TK-10 renal = test system: TK-10 renal
SK-MEL-2 melanoma = test system: SK-MEL-2 melanoma
RXF 393 renal = test system: RXF 393 renal
UACC-257 melanoma = test system: UACC-257 melanoma
SW-620 colon = test system: SW-620 colon
A549 NSCLC = test system: A549 NSCLC
SK-MEL-5 melanoma = test system: SK-MEL-5 melanoma
HL-60(TB) leukemia = test system: HL-60(TB) leukemia
MALME-3M melanoma = test system: MALME-3M melanoma
NCI-H460 lung = test system: NCI-H460 lung
MDA-MB-435 = test system: MDA-MB-435
SK-OV-3 ovarian = test system: SK-OV-3 ovarian
RPMI-8226 leukemia = test system: RPMI-8226 leukemia
SK-MEL-28 melanoma = test system: SK-MEL-28 melanoma
OVCAR-3 ovarian = test system: OVCAR-3 ovarian
SF-268 CNS = test system: SF-268 CNS
EKVX NSCLC = test system: EKVX NSCLC
HOP-62 NSCLC = test system: HOP-62 NSCLC
CAKI-1 renal = test system: CAKI-1 renal
NCI-H23 lung = test system: NCI-H23 lung
SNB-19 CNS = test system: SNB-19 CNS
SF-539 CNS = test system: SF-539 CNS
OVCAR-5 ovarian = test system: OVCAR-5 ovarian
HT29 colon = test system: HT29 colon
CCRF-CEM leukemia = test system: CCRF-CEM leukemia
COLO 205 colon = test system: COLO 205 colon
KM12 colon = test system: KM12 colon
UACC-62 melanoma = test system: UACC-62 melanoma
BT-549 breast = test system: BT-549 breast
SN12C renal = test system: SN12C renal

## O=C1c2cc3c(cc2CC12Cc1ccc4c(c1C2=O)CCC4)CCCC3 (stereo not drawn)
K-562 leukemia
  TGI: > 100000 nM
MDA-N
  TGI: > 100000 nM
HCT-116 colon
  TGI: > 100000 nM
MOLT-4 leukemia
  TGI: > 100000 nM
SF-295 CNS
  TGI: > 100000 nM
T-47D breast
  TGI: > 100000 nM
DU-145 prostate
  TGI: > 100000 nM
A498 renal
  TGI: > 100000 nM
ACHN renal
  TGI: > 100000 nM
UO-31 renal
  TGI: > 100000 nM
OVCAR-8 ovarian
  TGI: > 100000 nM
MDA-MB-231 breast
  TGI: > 100000 nM
SR leukemia
  TGI: > 100000 nM
NCI/ADR-RES ovarian
  TGI: > 100000 nM
MCF7 breast
  TGI: > 100000 nM
SNB-75 CNS
  TGI: > 100000 nM
HCC-2998 colon
  TGI: > 100000 nM
PC-3 prostate
  TGI: > 100000 nM
M14 melanoma
  TGI: > 100000 nM
OVCAR-4 ovarian
  TGI: > 100000 nM
IGROV1 ovarian
  TGI: > 100000 nM
HOP-92 NSCLC
  TGI: > 100000 nM
NCI-H522 lung
  TGI: > 100000 nM
U251 CNS
  TGI: > 100000 nM
HCT-15 colon
  TGI: > 100000 nM
HS 578T breast
  TGI: > 100000 nM
786-0 renal
  TGI: > 100000 nM
LOX IMVI melanoma
  TGI: > 100000 nM
TK-10 renal
  TGI: > 100000 nM
SK-MEL-2 melanoma
  TGI: > 100000 nM
RXF 393 renal
  TGI: > 100000 nM
UACC-257 melanoma
  TGI: > 100000 nM
SW-620 colon
  TGI: > 100000 nM
A549 NSCLC
  TGI: > 100000 nM
SK-MEL-5 melanoma
  TGI: > 100000 nM
HL-60(TB) leukemia
  TGI: > 100000 nM
MALME-3M melanoma
  TGI: > 100000 nM
NCI-H460 lung
  TGI: > 100000 nM
MDA-MB-435
  TGI: > 100000 nM
SK-OV-3 ovarian
  TGI: > 100000 nM
RPMI-8226 leukemia
  TGI: > 100000 nM
SK-MEL-28 melanoma
  TGI: > 100000 nM
OVCAR-3 ovarian
  TGI: > 100000 nM
SF-268 CNS
  TGI: > 100000 nM
EKVX NSCLC
  TGI: > 100000 nM
HOP-62 NSCLC
  TGI: > 100000 nM
CAKI-1 renal
  TGI: > 100000 nM
NCI-H23 lung
  TGI: > 100000 nM
SNB-19 CNS
  TGI: > 100000 nM
SF-539 CNS
  TGI: > 100000 nM
OVCAR-5 ovarian
  TGI: > 100000 nM
HT29 colon
  TGI: > 100000 nM
CCRF-CEM leukemia
  TGI: > 100000 nM

## Cc1c2oc3c(C)ccc(C(=O)NC4C(=O)NC(C(C)C)C(=O)N5CCCC5C(=O)N(C)CC(=O)N(C)C(C(C)C)C(=O)OC4C)c3nc-2c(C(=O)NC2C(=O)NC(C(C)C)C(=O)N3CCCC3C(=O)N(C)CC(=O)N(C)C(C(C)C)C(=O)OC2C)c(N)c1=O (stereo not drawn) (I: TVP[Sar][NMeV] / II: TVP[Sar][NMeV]; ester I:1-I:C, II:1-II:C; linker I:N-II:N via Actinocin(9to1); configuration not given here)
COLO 205 colon
  TGI: 2.99 nM
MDA-N
  TGI: 9.4 nM
HCT-116 colon
  TGI: > 1000 nM
MOLT-4 leukemia
  TGI: 1.37 nM
SF-295 CNS
  TGI: 68.7 nM
KM12 colon
  TGI: 19 nM
DU-145 prostate
  GI50: 1.29 nM
  TGI: > 1000 nM
A498 renal
  TGI: 15.2 nM
UO-31 renal
  TGI: 120 nM
OVCAR-8 ovarian
  TGI: 7.72 nM
MDA-MB-231 breast
  TGI: > 231 nM
NCI/ADR-RES ovarian
  TGI: > 1000 nM
MCF7 breast
  TGI: 3.42 nM
UACC-62 melanoma
  TGI: 1.92 nM
SNB-75 CNS
  TGI: 0.907 nM
HCC-2998 colon
  TGI: 27.2 nM
PC-3 prostate
  TGI: 31.7 nM
M14 melanoma
  TGI: 20.7 nM
OVCAR-4 ovarian
  TGI: 1.87 nM
IGROV1 ovarian
  TGI: > 396 nM
HOP-92 NSCLC
  TGI: 20.3 nM
NCI-H522 lung
  TGI: 1.37 nM
HCT-15 colon
  TGI: > 1000 nM
HS 578T breast
  TGI: 4.39 nM
786-0 renal
  TGI: > 1000 nM
TK-10 renal
  TGI: > 246 nM
SK-MEL-2 melanoma
  TGI: 2.95 nM
RXF 393 renal
  TGI: 6.53 nM
UACC-257 melanoma
  TGI: 23.1 nM
SW-620 colon
  TGI: 105 nM
A549 NSCLC
  TGI: > 867 nM
SK-MEL-5 melanoma
  TGI: 15.3 nM
HL-60(TB) leukemia
  GI50: 0.288 nM
  TGI: 23.7 nM
MALME-3M melanoma
  TGI: 14.5 nM
NCI-H460 lung
  TGI: 1.26 nM
MDA-MB-435
  TGI: 12.5 nM
SK-OV-3 ovarian
  TGI: > 1000 nM
RPMI-8226 leukemia
  TGI: > 1000 nM
SK-MEL-28 melanoma
  TGI: 12.5 nM
OVCAR-3 ovarian
  TGI: 9.07 nM
SF-268 CNS
  TGI: 26.9 nM
EKVX NSCLC
  TGI: > 779 nM
HOP-62 NSCLC
  TGI: 6.96 nM
CAKI-1 renal
  TGI: > 316 nM
BT-549 breast
  TGI: 29.2 nM
NCI-H23 lung
  TGI: 4.81 nM
SNB-19 CNS
  TGI: > 350 nM
SF-539 CNS
  TGI: 2.99 nM
OVCAR-5 ovarian
  GI50: 1.45 nM
  TGI: 6.63 nM
HT29 colon
  TGI: 2.07 nM
CCRF-CEM leukemia
  TGI: 3.3 nM
SN12C renal
  TGI: 37.9 nM
